Data reported in ChEMBL document CHEMBL1148776, “Structure-based optimization of protein tyrosine phosphatase 1B inhibitors: from the active site to the second phosphotyrosine binding site” (J Med Chem, 2007).
Each block holds one molecule with its values, some of them ahead of it.

Assays:
[1] = biological target: T1, Receptor-type tyrosine-protein phosphatase C (Homo sapiens, UniProt P08575); assay: Inhibition of human recombinant CD45
T1 sequence (P08575 whole entry): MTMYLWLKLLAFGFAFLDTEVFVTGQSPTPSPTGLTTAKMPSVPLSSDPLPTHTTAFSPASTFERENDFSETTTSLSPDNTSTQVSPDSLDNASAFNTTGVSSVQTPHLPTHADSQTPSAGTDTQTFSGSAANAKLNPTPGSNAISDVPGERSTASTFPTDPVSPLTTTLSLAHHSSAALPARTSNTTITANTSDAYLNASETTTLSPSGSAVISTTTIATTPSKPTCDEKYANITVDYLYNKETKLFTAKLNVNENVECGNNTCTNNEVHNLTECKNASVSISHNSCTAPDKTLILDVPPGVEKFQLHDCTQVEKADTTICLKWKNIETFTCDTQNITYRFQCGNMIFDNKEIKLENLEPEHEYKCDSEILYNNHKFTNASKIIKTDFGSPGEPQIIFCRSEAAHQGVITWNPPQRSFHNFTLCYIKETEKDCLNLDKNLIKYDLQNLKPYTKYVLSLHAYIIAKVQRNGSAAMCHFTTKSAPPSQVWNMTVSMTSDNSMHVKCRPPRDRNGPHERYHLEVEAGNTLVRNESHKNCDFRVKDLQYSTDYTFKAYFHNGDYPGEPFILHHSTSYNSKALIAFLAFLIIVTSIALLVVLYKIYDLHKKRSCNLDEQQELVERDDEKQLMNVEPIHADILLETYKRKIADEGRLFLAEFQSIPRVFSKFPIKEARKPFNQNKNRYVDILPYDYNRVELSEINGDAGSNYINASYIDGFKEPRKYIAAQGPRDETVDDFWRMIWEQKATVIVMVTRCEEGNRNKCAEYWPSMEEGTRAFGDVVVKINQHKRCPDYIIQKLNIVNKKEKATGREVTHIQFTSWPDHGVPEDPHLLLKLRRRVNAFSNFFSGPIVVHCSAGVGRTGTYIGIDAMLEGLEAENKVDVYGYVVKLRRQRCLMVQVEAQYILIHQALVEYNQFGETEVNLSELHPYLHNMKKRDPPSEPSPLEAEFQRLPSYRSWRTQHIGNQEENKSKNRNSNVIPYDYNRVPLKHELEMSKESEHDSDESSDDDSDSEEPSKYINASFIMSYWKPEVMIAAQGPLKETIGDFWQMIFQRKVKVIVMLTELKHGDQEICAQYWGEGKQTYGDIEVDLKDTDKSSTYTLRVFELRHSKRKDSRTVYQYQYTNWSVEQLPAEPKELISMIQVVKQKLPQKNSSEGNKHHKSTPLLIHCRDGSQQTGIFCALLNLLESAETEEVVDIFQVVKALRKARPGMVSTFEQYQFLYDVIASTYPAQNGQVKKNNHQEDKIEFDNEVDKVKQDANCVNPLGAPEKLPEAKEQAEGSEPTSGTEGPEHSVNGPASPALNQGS

[2] = biological target: Receptor-type tyrosine-protein phosphatase F (Homo sapiens, UniProt P10586); assay: Inhibition of human recombinant LAR
Receptor-type tyrosine-protein phosphatase F, sequence (P10586 whole entry): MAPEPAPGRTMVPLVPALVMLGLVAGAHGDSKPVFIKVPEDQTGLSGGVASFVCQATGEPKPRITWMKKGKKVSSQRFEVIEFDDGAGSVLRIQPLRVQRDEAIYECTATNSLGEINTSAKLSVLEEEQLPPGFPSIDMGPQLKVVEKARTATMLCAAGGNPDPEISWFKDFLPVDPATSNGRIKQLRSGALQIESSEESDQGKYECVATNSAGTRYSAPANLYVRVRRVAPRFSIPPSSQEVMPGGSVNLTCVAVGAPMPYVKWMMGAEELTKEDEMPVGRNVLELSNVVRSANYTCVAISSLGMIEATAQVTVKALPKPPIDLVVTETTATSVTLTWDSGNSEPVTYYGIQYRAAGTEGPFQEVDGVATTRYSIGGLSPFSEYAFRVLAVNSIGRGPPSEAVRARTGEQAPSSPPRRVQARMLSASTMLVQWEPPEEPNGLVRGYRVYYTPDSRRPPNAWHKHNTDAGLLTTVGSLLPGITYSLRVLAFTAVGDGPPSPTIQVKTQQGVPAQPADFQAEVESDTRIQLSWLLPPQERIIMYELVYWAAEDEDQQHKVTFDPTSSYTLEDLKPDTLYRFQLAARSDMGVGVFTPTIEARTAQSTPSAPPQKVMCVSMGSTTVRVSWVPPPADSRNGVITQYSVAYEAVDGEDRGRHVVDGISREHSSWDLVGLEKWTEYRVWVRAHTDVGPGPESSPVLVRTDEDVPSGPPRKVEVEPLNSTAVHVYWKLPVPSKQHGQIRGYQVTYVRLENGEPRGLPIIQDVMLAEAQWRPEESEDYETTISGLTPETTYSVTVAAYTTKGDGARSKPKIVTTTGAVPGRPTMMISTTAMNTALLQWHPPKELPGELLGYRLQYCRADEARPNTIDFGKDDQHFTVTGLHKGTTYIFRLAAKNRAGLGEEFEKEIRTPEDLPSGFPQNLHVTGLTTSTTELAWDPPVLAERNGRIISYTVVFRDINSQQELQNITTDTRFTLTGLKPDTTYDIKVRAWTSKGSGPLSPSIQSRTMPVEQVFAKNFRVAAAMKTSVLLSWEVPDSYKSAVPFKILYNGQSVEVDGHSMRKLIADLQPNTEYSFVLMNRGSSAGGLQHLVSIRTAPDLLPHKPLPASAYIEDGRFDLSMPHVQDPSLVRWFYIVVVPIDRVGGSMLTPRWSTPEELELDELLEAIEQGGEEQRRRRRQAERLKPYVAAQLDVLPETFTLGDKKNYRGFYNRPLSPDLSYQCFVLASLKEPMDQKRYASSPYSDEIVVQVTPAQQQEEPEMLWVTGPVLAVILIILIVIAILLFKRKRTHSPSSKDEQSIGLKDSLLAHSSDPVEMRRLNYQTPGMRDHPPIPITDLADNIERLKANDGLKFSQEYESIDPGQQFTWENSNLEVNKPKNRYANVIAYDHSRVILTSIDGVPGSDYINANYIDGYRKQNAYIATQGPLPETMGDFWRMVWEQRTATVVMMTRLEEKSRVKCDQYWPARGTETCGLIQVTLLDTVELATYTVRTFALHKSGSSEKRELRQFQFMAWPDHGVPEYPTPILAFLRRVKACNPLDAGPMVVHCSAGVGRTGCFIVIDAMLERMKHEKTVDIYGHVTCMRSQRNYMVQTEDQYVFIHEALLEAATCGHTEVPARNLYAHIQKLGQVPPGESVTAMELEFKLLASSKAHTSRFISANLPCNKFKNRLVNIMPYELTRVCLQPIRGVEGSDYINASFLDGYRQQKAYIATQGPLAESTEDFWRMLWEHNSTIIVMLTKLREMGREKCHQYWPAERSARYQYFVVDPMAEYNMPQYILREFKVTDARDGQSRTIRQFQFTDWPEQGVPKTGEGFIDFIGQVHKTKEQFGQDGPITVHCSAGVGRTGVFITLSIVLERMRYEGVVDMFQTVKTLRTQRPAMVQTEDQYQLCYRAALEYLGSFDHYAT

[3] = biological target: T2, Tyrosine-protein phosphatase non-receptor type 1 (Homo sapiens, UniProt P18031); assay: Inhibition of human recombinant PTP1B
T2 sequence (P18031 whole entry): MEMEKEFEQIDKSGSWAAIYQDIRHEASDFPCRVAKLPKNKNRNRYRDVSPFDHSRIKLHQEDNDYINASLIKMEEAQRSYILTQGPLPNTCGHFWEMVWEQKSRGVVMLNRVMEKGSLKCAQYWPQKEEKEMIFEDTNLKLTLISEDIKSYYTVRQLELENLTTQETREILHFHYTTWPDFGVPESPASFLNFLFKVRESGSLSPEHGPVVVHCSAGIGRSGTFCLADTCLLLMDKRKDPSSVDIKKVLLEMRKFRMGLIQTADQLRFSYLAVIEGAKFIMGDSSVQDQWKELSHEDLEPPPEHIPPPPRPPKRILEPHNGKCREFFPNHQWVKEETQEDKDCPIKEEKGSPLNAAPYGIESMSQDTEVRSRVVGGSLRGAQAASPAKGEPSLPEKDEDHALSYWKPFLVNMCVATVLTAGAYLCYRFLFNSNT

Structure (SMILES): O=C(O)COc1c(C(=O)O)sc(-c2cccc(NCC3CCN(C(=O)Nc4ccccc4)CC3)c2)c1Br
Ki [3]: 0.007 µM

Structure (SMILES): O=C(O)COc1c(C(=O)O)sc(-c2cccc(OCC3CCN(C(=O)Nc4ccccc4)CC3)c2)c1Br
Ki [3]: 0.013 µM

Structure (SMILES): O=C(O)COc1c(C(=O)O)sc(-c2cccc(NC3CCN(S(=O)(=O)Cc4ccc(Cl)cc4)CC3)c2)c1Br
Ki [3]: 0.038 µM

Structure (SMILES): Cc1cccc(C)c1CS(=O)(=O)N1CCC(Nc2cccc(-c3sc(C(=O)O)c(OCC(=O)O)c3Br)c2)CC1
Ki [3]: 0.006 µM

Structure (SMILES): Cc1cccc(C)c1NC(=O)N1CCC(CNc2cccc(-c3sc(C(=O)O)c(OCC(=O)O)c3Br)c2)CC1
Ki [3]: 0.003 µM

Structure (SMILES): O=C(O)COc1c(C(=O)O)sc(-c2cccc(NCC3CCCCC3)c2)c1Br
Ki [3]: 0.2 µM

Structure (SMILES): O=C(O)COc1c(C(=O)O)sc(-c2cccc(NC3CCCCCC3)c2)c1Br
Ki [3]: 0.12 µM

Structure (SMILES): CC1(C)CC(Nc2cccc(-c3sc(C(=O)O)c(OCC(=O)O)c3Br)c2)CC(C)(C)C1
Ki [1]: 151 µM
Ki [2]: > 1000 µM

Structure (SMILES): CS(=O)(=O)N1CCC(Nc2cccc(-c3sc(C(=O)O)c(OCC(=O)O)c3Br)c2)CC1
Ki [3]: 0.044 µM

Structure (SMILES): Cc1c(-c2cccc(NC3CCN(S(=O)(=O)Cc4ccccc4)CC3)c2)sc(C(=O)O)c1OCC(=O)O
Ki [3]: 0.008 µM

Structure (SMILES): O=C(O)COc1c(C(=O)O)sc(-c2cccc(NC3CCN(S(=O)(=O)Cc4ccccc4)CC3)c2)c1Cl
Ki [3]: 0.00068 µM

Structure (SMILES): O=C(O)COc1cc(-c2cccc(NC3CCN(S(=O)(=O)Cc4ccccc4)CC3)c2)sc1C(=O)O
Ki [3]: 2 µM

Structure (SMILES): O=C(O)COc1c(C(=O)O)sc(-c2cccc(NCC3CCN(S(=O)(=O)Cc4ccccc4)CC3)c2)c1Br
Ki [3]: 0.074 µM

Structure (SMILES): Cc1ccccc1CS(=O)(=O)N1CCC(Nc2cccc(-c3sc(C(=O)O)c(OCC(=O)O)c3Br)c2)CC1
Ki [3]: 0.004 µM

Structure (SMILES): O=C(O)COc1c(C(=O)O)sc(-c2cccc(OCc3ccccc3)c2)c1Br
Ki [3]: 0.68 µM

Structure (SMILES): O=C(O)COc1c(C(=O)O)sc(-c2cccc(NC3CCCC3)c2)c1Br
Ki [3]: 0.39 µM

Structure (SMILES): O=C(O)COc1c(C(=O)O)sc(-c2cccc(NC3CCOCC3)c2)c1Br
Ki [3]: 0.31 µM

Structure (SMILES): CS(=O)(=O)Nc1ccccc1CS(=O)(=O)N1CCC(Nc2cccc(-c3sc(C(=O)O)c(OCC(=O)O)c3Br)c2)CC1
Ki [3]: 0.001 µM

Structure (SMILES): O=C(O)COc1c(C(=O)O)sc(-c2cccc(NC3CCN(C(=O)NCc4ccccc4)CC3)c2)c1Br
Ki [3]: 0.3 µM

Structure (SMILES): O=C(O)COc1c(C(=O)O)sc(-c2cccc(NS(=O)(=O)c3ccc(F)cc3)c2)c1Br
Ki [3]: 0.44 µM

Structure (SMILES): Cc1ccccc1NC(=O)N1CCC(CNc2cccc(-c3sc(C(=O)O)c(OCC(=O)O)c3Br)c2)CC1
Ki [3]: 0.003 µM

Results, then the molecule that gave them:

Ki [1]: 280 µM
Ki [2]: > 500 µM
Structure (SMILES): O=C(O)COc1c(C(=O)O)sc(-c2ccccc2)c1Br

Ki [3]: 0.005 µM
Structure (SMILES): O=C(O)COc1c(C(=O)O)sc(-c2cccc(NC3CCN(S(=O)(=O)Cc4ccccc4Cl)CC3)c2)c1Br

Ki [3]: 0.006 µM
Structure (SMILES): O=C(O)COc1c(C(=O)O)sc(-c2cccc(NC3CCN(S(=O)(=O)Cc4ccccc4C(F)(F)F)CC3)c2)c1Br

Ki [3]: 0.003 µM
Structure (SMILES): COc1ccccc1NC(=O)N1CCC(CNc2cccc(-c3sc(C(=O)O)c(OCC(=O)O)c3Br)c2)CC1

Ki [3]: 1.7 µM
Structure (SMILES): Nc1cccc(-c2sc(C(=O)O)c(OCC(=O)O)c2Br)c1

Ki [3]: 2 µM
Structure (SMILES): CCC(=O)Nc1cccc(-c2sc(C(=O)O)c(OCC(=O)O)c2Br)c1

Ki [3]: 2.1 µM
Structure (SMILES): CC(C)NC(=O)Nc1cccc(-c2sc(C(=O)O)c(OCC(=O)O)c2Br)c1

Ki [3]: 2 µM
Structure (SMILES): COC(=O)Nc1cccc(-c2sc(C(=O)O)c(OCC(=O)O)c2Br)c1

Ki [3]: 3.8 µM
Structure (SMILES): O=C(O)COc1c(C(=O)O)sc(-c2cccc(NC3CCNCC3)c2)c1Br

Ki [3]: 0.39 µM
Structure (SMILES): COC(=O)N1CCC(Nc2cccc(-c3sc(C(=O)O)c(OCC(=O)O)c3Br)c2)CC1

Ki [3]: 0.055 µM
Structure (SMILES): O=C(O)COc1c(C(=O)O)sc(-c2cccc(NC3CCN(S(=O)(=O)c4ccccc4)CC3)c2)c1Br

Ki [3]: 0.024 µM
Structure (SMILES): O=C(O)COc1c(C(=O)O)sc(-c2cccc(OC3CCN(S(=O)(=O)Cc4ccccc4)CC3)c2)c1Br

Ki [3]: 0.004 µM
Structure (SMILES): O=C(O)COc1c(C(=O)O)sc(-c2cccc(NCC3CCN(C(=O)Nc4ccccc4Cl)CC3)c2)c1Br

Ki [3]: 0.01 µM
Structure (SMILES): O=C(O)COc1c(C(=O)O)sc(-c2cccc(NC3CCN(S(=O)(=O)Cc4cccc(Cl)c4)CC3)c2)c1Br

Ki [3]: 0.19 µM
Structure (SMILES): CC(=O)N1CCC(Nc2cccc(-c3sc(C(=O)O)c(OCC(=O)O)c3Br)c2)CC1

Ki [3]: 4 µM
Structure (SMILES): COc1cccc(-c2sc(C(=O)O)c(OCC(=O)O)c2Br)c1

Ki [3]: 2.1 µM
Structure (SMILES): O=C(O)COc1c(C(=O)O)sc(-c2cccc(NC(=O)c3ccccc3)c2)c1Br

Ki [3]: 0.014 µM
Structure (SMILES): CCNC(=O)Nc1ccccc1CS(=O)(=O)N1CCC(Nc2cccc(-c3sc(C(=O)O)c(OCC(=O)O)c3Br)c2)CC1

Ki [3]: 0.31 µM
Structure (SMILES): O=C(O)COc1c(C(=O)O)sc(-c2cccc(NCC3CCN(S(=O)(=O)c4ccccc4)CC3)c2)c1Br
